US7192906B2, “Substituted pyrazole derivatives, production process thereof, and herbicide compositions containing the derivatives” (SDS Biotech K.K., priority 2001, dated 2007)

Columns and labels:
Assay type in all cases: in vivo
Chenopodium album [1] = assay: Test Example 1 upland field foliage treatment; settings: Table 4, upland field foliage treatment, index 0-5
How it was run: (§1)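 Post-emergence foliar spray, 1 kg a.i./ha, wettable powder diluted in water, applied 14 d after sowing in upland soil. Rating 21 d post-application, 0–5 scale: 5 ≥90%, 4 70–<90%, 3 50–<70%, 2 30–<50%, 1 10–<30%, 0 <10% effect or injury.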

Digitaria adscendens [2] = assay: Test Example 1 upland field foliage treatment; settings: Table 4, upland field foliage treatment, index 0-5
How it was run: as §1

Setaria viridis [3] = assay: Test Example 1 upland field foliage treatment; settings: Table 4, upland field foliage treatment, index 0-5
How it was run: as §1

Stellaria media [4] = assay: Test Example 1 upland field foliage treatment; settings: Table 4, upland field foliage treatment, index 0-5
How it was run: as §1

soybean (Glycine max) [5] = assay: Test Example 1 upland field foliage treatment, crop phytotoxicity; settings: Table 4, upland field foliage treatment, index 0-5
How it was run: as §1

[6] = test system: wheat (Triticum aestivum); assay: as above; settings: Table 4, upland field foliage treatment, index 0-5
How it was run: as §1

Chenopodium album [7] = assay: Test Example 2 upland soil treatment; settings: Table 5, upland soil treatment, index 0-5
How it was run: (§2)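 Seeds are sown into upland soil and covered by roughly 1 cm of soil, then the compound, formulated as a wettable powder and diluted with water, is applied uniformly to the soil surface the following day at 1 kg active ingredient per hectare. Herbicidal effect or phytotoxicity is graded 0 to 5 after 21 days.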

Digitaria adscendens [8] = assay: Test Example 2 upland soil treatment; settings: Table 5, upland soil treatment, index 0-5
How it was run: as §2

Setaria viridis [9] = assay: Test Example 2 upland soil treatment; settings: Table 5, upland soil treatment, index 0-5
How it was run: as §2

Stellaria media [10] = assay: Test Example 2 upland soil treatment; settings: Table 5, upland soil treatment, index 0-5
How it was run: as §2

soybean (Glycine max) [11] = assay: Test Example 2 upland soil treatment, crop phytotoxicity; settings: Table 5, upland soil treatment, index 0-5
How it was run: as §2

[12] = test system: wheat (Triticum aestivum); assay: as above; settings: Table 5, upland soil treatment, index 0-5
How it was run: as §2

Ammannia multiflora = assay: Test Example 3 paddy field treatment; settings: active ingredient 1 kg per hectare, index 0-5
How it was run: (§3)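 Scoring used a 0–5 scale of herbicidal effect or phytotoxicity, from <10% to ≥90%, taken 21 days after treatment. Treatment was 1 kg a.i./ha as diluted wettable powder dripped onto 4 cm-deep flooded pots sown with the weeds, 10 days after transplanting two-leaf Koshihikari rice.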

Echinochloa crusgalli = assay: Test Example 3 paddy field treatment; settings: active ingredient 1 kg per hectare, index 0-5
How it was run: as §3

Monochoria vaginalis = assay: Test Example 3 paddy field treatment; settings: active ingredient 1 kg per hectare, index 0-5
How it was run: as §3

Scirpus juncoides = assay: Test Example 3 paddy field treatment; settings: active ingredient 1 kg per hectare, index 0-5
How it was run: as §3

Rice (Oryza sativa) = assay: Test Example 3 paddy field treatment, crop phytotoxicity; settings: active ingredient 1 kg per hectare, index 0-5; for Herbicidal activity OS (phytotoxicity to rice): paddy field treatment, transplanted rice Koshihikari, wettable powder, 21st day after the dropping
How it was run: as §3

[13] = Table 6, paddy field treatment, 21st day after dropping
[14] = paddy field treatment, wettable powder, 21st day after the dropping

SMILES	Herbicidal activity CA: Chenopodium album (Chenopodium album [1])	Herbicidal activity DA: Digitaria adscendens (Digitaria adscendens [2])	Herbicidal activity SV: Setaria viridis (Setaria viridis [3])	Herbicidal activity SM: Stellaria media (Stellaria media [4])	Herbicidal activity (phytotoxicity) GM: Soybean (Glycine max) (soybean (Glycine max) [5])	Herbicidal activity (phytotoxicity) TA: Wheat (Triticum aestivum) [6]	Herbicidal activity CA: Chenopodium album (Chenopodium album [7])	Herbicidal activity DA: Digitaria adscendens (Digitaria adscendens [8])	Herbicidal activity SV: Setaria viridis (Setaria viridis [9])	Herbicidal activity SM: Stellaria media (Stellaria media [10])	Herbicidal activity (phytotoxicity) GM: Soybean (Glycine max) (soybean (Glycine max) [11])	Herbicidal activity (phytotoxicity) TA: Wheat (Triticum aestivum) [12]	Herbicidal activity AM (Ammannia multiflora; [14])	Herbicidal activity EC (Echinochloa crusgalli; [14])	Herbicidal activity MV (Monochoria vaginalis; [14])	Herbicidal activity SJ (Scirpus juncoides; [14])	Herbicidal activity OS (phytotoxicity to rice) (Rice (Oryza sativa))	other results
CNC(=O)C(Cn1cc(C)c(-c2cc(F)ccc2F)n1)=NOC [Compound 57]	5 (herbicidal effect of not less than 90%, or phytotoxicity of 90% or more)	5 (herbicidal effect of not less than 90%, or phytotoxicity of 90% or more)	5 (herbicidal effect of not less than 90%, or phytotoxicity of 90% or more)	5 (herbicidal effect of not less than 90%, or phytotoxicity of 90% or more)	0 (herbicidal effect of not less than 0% and less than 10%, or phytotoxicity of 0% or more and less than 10%)	0 (herbicidal effect of not less than 0% and less than 10%, or phytotoxicity of 0% or more and less than 10%)	5 (herbicidal effect of not less than 90%, or phytotoxicity of 90% or more)	5 (herbicidal effect of not less than 90%, or phytotoxicity of 90% or more)	5 (herbicidal effect of not less than 90%, or phytotoxicity of 90% or more)	5 (herbicidal effect of not less than 90%, or phytotoxicity of 90% or more)	0 (herbicidal effect of not less than 0% and less than 10%, or phytotoxicity of 0% or more and less than 10%)	0 (herbicidal effect of not less than 0% and less than 10%, or phytotoxicity of 0% or more and less than 10%)						Herbicidal activity AM (Ammannia multiflora; [13]): 5 (herbicidal effect of not less than 90%, or phytotoxicity of 90% or more); Herbicidal activity EC (Echinochloa crusgalli; [13]): 5 (herbicidal effect of not less than 90%, or phytotoxicity of 90% or more); Herbicidal activity MV (Monochoria vaginalis; [13]): 5 (herbicidal effect of not less than 90%, or phytotoxicity of 90% or more); Herbicidal activity SJ (Scirpus juncoides; [13]): 5 (herbicidal effect of not less than 90%, or phytotoxicity of 90% or more); Herbicidal activity (phytotoxicity) OS (Rice (Oryza sativa); Table 6, paddy field treatment, transplanted rice, 21st day after dropping): 0 (herbicidal effect of not less than 0% and less than 10%, or phytotoxicity of 0% or more and less than 10%)
CNC(=O)C(Cn1cc(C)c(-c2ccccc2)n1)=NOC [Compound 18]	5 (herbicidal effect of not less than 90%, or phytotoxicity of 90% or more)	5 (herbicidal effect of not less than 90%, or phytotoxicity of 90% or more)	5 (herbicidal effect of not less than 90%, or phytotoxicity of 90% or more)	5 (herbicidal effect of not less than 90%, or phytotoxicity of 90% or more)	0 (herbicidal effect of not less than 0% and less than 10%, or phytotoxicity of 0% or more and less than 10%)	0 (herbicidal effect of not less than 0% and less than 10%, or phytotoxicity of 0% or more and less than 10%)	5 (herbicidal effect of not less than 90%, or phytotoxicity of 90% or more)	5 (herbicidal effect of not less than 90%, or phytotoxicity of 90% or more)	5 (herbicidal effect of not less than 90%, or phytotoxicity of 90% or more)	5 (herbicidal effect of not less than 90%, or phytotoxicity of 90% or more)	0 (herbicidal effect of not less than 0% and less than 10%, or phytotoxicity of 0% or more and less than 10%)	0 (herbicidal effect of not less than 0% and less than 10%, or phytotoxicity of 0% or more and less than 10%)	5 (herbicidal effect of not less than 90%, or phytotoxicity of 90% or more)	5 (herbicidal effect of not less than 90%, or phytotoxicity of 90% or more)	5 (herbicidal effect of not less than 90%, or phytotoxicity of 90% or more)	5 (herbicidal effect of not less than 90%, or phytotoxicity of 90% or more)	0 (herbicidal effect of not less than 0% and less than 10%, or phytotoxicity of 0% or more and less than 10%)	
CNC(=O)C(Cn1cc(C)c(-c2ccc(Oc3ccccc3)cc2)n1)=NOC [Compound 53]	5 (herbicidal effect of not less than 90%, or phytotoxicity of 90% or more)	5 (herbicidal effect of not less than 90%, or phytotoxicity of 90% or more)	4 (herbicidal effect of not less than 70% and less than 90%, or phytotoxicity of 70% or more and less than 90%)	4 (herbicidal effect of not less than 70% and less than 90%, or phytotoxicity of 70% or more and less than 90%)	0 (herbicidal effect of not less than 0% and less than 10%, or phytotoxicity of 0% or more and less than 10%)	0 (herbicidal effect of not less than 0% and less than 10%, or phytotoxicity of 0% or more and less than 10%)	4 (herbicidal effect of not less than 70% and less than 90%, or phytotoxicity of 70% or more and less than 90%)	5 (herbicidal effect of not less than 90%, or phytotoxicity of 90% or more)	3 (herbicidal effect of not less than 50% and less than 70%, or phytotoxicity of 50% or more and less than 70%)	4 (herbicidal effect of not less than 70% and less than 90%, or phytotoxicity of 70% or more and less than 90%)	0 (herbicidal effect of not less than 0% and less than 10%, or phytotoxicity of 0% or more and less than 10%)	0 (herbicidal effect of not less than 0% and less than 10%, or phytotoxicity of 0% or more and less than 10%)	5 (herbicidal effect of not less than 90%, or phytotoxicity of 90% or more)	5 (herbicidal effect of not less than 90%, or phytotoxicity of 90% or more)	5 (herbicidal effect of not less than 90%, or phytotoxicity of 90% or more)	5 (herbicidal effect of not less than 90%, or phytotoxicity of 90% or more)	0 (herbicidal effect of not less than 0% and less than 10%, or phytotoxicity of 0% or more and less than 10%)	
